Experiment [1] deals with carrageenan-induced rat hind paw edema. Kind of experiment: Carrageenan-induced rat paw edema inhibition assay. The class given is in vivo. To be noted: oral 0.0314 mmol/kg, after 4 h. How it is done:
The anti-inflammatory efficacy of the newly synthesised compounds was assessed using a carrageenan-induced rat hind paw edema technique The animals were divided into groups of six at random, fasted for 24 h before to the experiment, and given free access to water. 0.5% CMC solution was given to the control group only. […] One hour after the administration of the test compounds and the reference drug, 0.1 mL of a 1% carrageenan solution in saline was subcutaneously injected into the subplantar area of the right hind paw of each rat. The right hind paw volume was measured using a Digital Plethysmometer PLM-01 Plus (Orchid Scientifics and Innovatives India Pvt. Ltd., Mumbai, India) at 3 and 4 h after carrageenan therapy. The following calculation was used to compute the percent edema inhibition from the mean effect in the treated and control animals: Percent edema inhibition=Vc-Vt/Vc×100 where Vc denotes the mean increase in paw volume in the control group of rats and Vt denotes the mean increase in paw volume in rats treated with test chemicals. After a 15-day washout period, the same group of rats utilised for the anti-inflammatory activity were employed for the ulcerogenic activity.
(In general: Carrageenan injected into the paw causes an acute inflammation.)

Experiment [2] relates to carrageenan-induced paw edema inflammation. Also noted: method as in earlier work. The conditions noted are these: albino rats; ref 50 (Saliyeva et al.); cited from earlier work.

As to `O=C(O)Cc1ccccc1Nc1c(Cl)cccc1Cl` [Diclofenac sodium, reference compound], in experiment [1], the “% inhibition (paw edema)” value was 80.32%. Moreover, the “% inhibition carrageenan-induced paw edema” value in experiment [2] is listed as 38.8%.

The values above are taken from PMC11009276, “Design, synthesis, biological assessment and molecular modeling studies of novel imidazothiazole-thiazolidinone hybrids as potential anticancer and anti-inflammatory agents” (Scientific Reports, 2024).
